{
  "source": "patent US20220370381A1",
  "about": "(priority 2016, published 2022)",
  "key": {"Na channel": {"system": "T1, Na channel", "T1 construct": "other: test article 1×10^−6 and 1×10^−5 mol/L; rat brain", "assay": "Competitive radioligand binding assay, Na channel", "set-up": "species or system Rat", "details": "test article 1×10^−6 and 1×10^−5 mol/L; rat brain"}, "serotonin 5-HT1A": {"biological_target": "T2, serotonin 5-HT1A (Rattus norvegicus, UniProt P19327)", "T2 construct": "serotonin 5-HT1A (rat cerebral cortex); from tissue; host or cells: rat cerebral cortex", "T2 sequence (P19327 1-422)": "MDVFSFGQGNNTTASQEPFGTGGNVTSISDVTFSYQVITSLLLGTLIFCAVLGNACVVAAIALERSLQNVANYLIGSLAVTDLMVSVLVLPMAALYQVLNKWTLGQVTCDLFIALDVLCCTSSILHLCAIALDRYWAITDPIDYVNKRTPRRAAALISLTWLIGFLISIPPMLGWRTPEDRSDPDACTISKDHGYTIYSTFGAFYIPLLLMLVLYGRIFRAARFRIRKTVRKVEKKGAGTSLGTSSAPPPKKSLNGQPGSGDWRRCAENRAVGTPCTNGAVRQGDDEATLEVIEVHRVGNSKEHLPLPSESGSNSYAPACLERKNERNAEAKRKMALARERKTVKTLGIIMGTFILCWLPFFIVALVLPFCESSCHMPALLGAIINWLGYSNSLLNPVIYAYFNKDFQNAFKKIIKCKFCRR", "assay": "Competitive radioligand binding assay, serotonin 5-HT1A"}, "Sigma non-selective": {"system": "Sigma non-selective", "assay": "Competitive radioligand binding assay, sigma non-selective", "set-up": "species or system Guinea pig", "details": "test article 1×10^−6 and 1×10^−5 mol/L; guinea pig brain"}, "Swiss OF-1 mice": {"system": "Swiss OF-1 mice", "assay": "Spontaneous alternation in the Y-maze, dizocilpine-induced deficit", "assay_type": "in vivo, mouse"}},
  "data": [
    {"smiles": "CCNC(C)Cc1cccc(C(F)(F)F)c1", "note": "(racemic) [fenfluramine, (RS)—N-ethyl-1-[3-(trifluoromethyl)phenyl]propan-2-amine]", "values": [
      {"measurement": "inhibition of receptor binding (tracer)", "setting": "Na channel", "value": "significantly inhibit"},
      {"measurement": "IC50", "setting": "serotonin 5-HT1A", "value": 573, "unit": "nM"},
      {"measurement": "Ki", "setting": "serotonin 5-HT1A", "value": 327, "unit": "nM"},
      {"measurement": "inhibition of receptor binding (tracer)", "setting": "serotonin 5-HT1A; test article 1×10^−6 and 1×10^−5 mol/L, rat cerebral cortex", "value": "significantly inhibit"},
      {"measurement": "inhibition of receptor binding (tracer)", "setting": "Sigma non-selective", "value": "significantly inhibit"},
      {"measurement": "dizocilpine-induced deficit of spontaneous alternation", "setting": "Swiss OF-1 mice; dizocilpine […], most active doses 0.3 and 1 mg/kg IP", "value": "significantly attenuated"},
      {"measurement": "interaction with PRE-084 (sigma-1 receptor behaviour in vivo)", "setting": "Swiss OF-1 mice; fenfluramine at maximal inactive dose (0.1), Y-maze and passive avoidance data", "value": "behaves as a sigma-1 receptor PAM"}
    ]}
  ]
}
